# Assay results as given in article PMC5797143, “Epigenetic modulation of inflammation and synaptic plasticity promotes resilience against stress in mice” (Nature Communications, 2018).
# Read-outs that look alike come from different tables or passages of the source.
# Legend:
# [1] = Cytotoxicity by high content screening (HCS); type: cell-based; conditions: human, HepG2 cells
# Text: (§1) Based on the efficacy of DHCA/Mal-gluc in treating stress-induced depression, we initiated an in vitro toxicity and drug-like properties studies to investigate the potential of developing these two phytochemicals as novel therapies. […] At low concentrations, DHCA and Mal-gluc had no detectable effects on cell number, nuclear size, DNA structure, cell membrane permeability, mitochondrial mass, mitochondrial membrane potential or cytochrome C release in high content screening (HCS)[41] using HepG2 cells (Table 1). At high concentrations, Mal-gluc reduced cell number, increased nuclear size, […], and increased mitochondrial mass, with calculated EC50s beyond physiological concentration (Table 1).
# (§2) MTT and LDH release assays were conducted in MSN-enriched primary neurons and in PBMCs[64]. Cellular cytotoxicity was conducted in HepG2 cells using high content screening (HCS) protocols. Briefly, HepG2 cells were plated on 384-well tissue culture treated black walled clear bottomed polystyrene plates and treated with varying concentrations of Mal-gluc or DHCA. The cells were loaded with the relevant dye/antibody for each cell-health marker following incubation, including cell count, markers for nuclear size, DNA structure, cell membrane permeability, mitochondrial mass, mitochondrial membrane potential and cytochrome C release. The plates were then scanned using an automated fluorescent cellular imager ArrayScanr (Thermo Scientific Cellomics).
# [2] = test system: 37 monoaminergic receptors and transporters; test: Radioligand binding assay, whole panel; conditions: concentrations as high as 10 µM
# Procedure: Currently available antidepressants are believed to act by modifying the activity of the brain monoaminergic system, [47]. We evaluated whether Mal-gluc and DHCA directly interact with the monoaminergic system using a radioligand binding assay.
# Radioligand binding assays were performed as previously described. Briefly, crude membrane fractions prepared from a stable HEK cell line expressing recombinant receptors were mixed with a radiolabeled specific ligand and 10 µM of competitor compound (DHCA, Mal-gluc, or non-specific ligand). The percentage of radioligand binding was subsequently measured.
# [3] = test system: CpG-rich sequences of mouse IL-6 promoter and introns 1, 3; test: CpG-free luciferase reporter with IL-6 promoter/intron CpG-rich segments in N2a cells; type: cell-based; conditions: 24 h
# Procedure: To investigate how DHCA may attenuate IL-6 generation, we tested the effect of DHCA on Toll-like receptor-4 mediated signaling pathways. PBMCs were pretreated with DHCA and stimulated with LPS using the same protocol as during screening. Samples were taken at 0, 30 min, 60 min, 6 h and 16 h following LPS stimulation and cell lysates were subjected to a multiplex ELISA assay. […] Based on evidence that DNA methylation at a single CpG in the human IL-6 promoter region effectively alters IL-6 expression, we next tested whether DHCA can modulate IL-6 gene expression through methylation mechanisms. We treated PBMC cells with DHCA and measured the expression of enzymes essential for DNA methylation/demethylation. […] To investigate how methylation influences IL-6 gene expression, we employed the CpG-free luciferase reporter system. We cloned a ~280 bp CpG rich DNA segment from the mouse IL-6 promoter into a promoterless CpG-free reporter construct and transfected into N2a cells. We found the CpG-rich IL-6 promoter segment presented no inherent promoter activity as reflected by no differences in luciferase activity compared to the control construct (Fig. 2f). […] We then cloned CpG rich DNA segments from IL-6 introns 1, 3 or 4 into the CpG-free luciferase reporter construct with a minimal EF1 promoter and no enhancer activity. […] In contrast, the CpG-rich region of IL-6 intron 4 presented no observable enhancer activity (Fig. 2g). […] To test whether DHCA may influence the expression of other pro-inflammatory factors, we measured the level of secreted cytokines following LPS stimulation (Supplementary Fig. 3).
# CpG-rich motif from mouse IL-6 promoter and intron 1, intron 3, and intron 4 were cloned into basic (no promoter or enhancer) or promoter (minimal EF1 promoter with no enhancer) pCpG-free Lucia plasmid (InvivoGen) using In-Fusion Cloning Kit (Clontech Laboratories). Plasmids were prepared in E. coli GT115 cells and expressed in N2A neuoblastoma cells using lipofectamine 2000 (ThermoFisher) according to manufacturer’s instruction. Following overnight recovery, cells were subjected to 5 µM of methylation inhibitor 5-Aza-2′-deoxycytidine (AZA-DC) or DHCA treatment. Twenty-four hours later, 10 µl of medium was incubated with 50 µl of QUANTI-Luc luciferase substrate for luciferase activity assessment.
# [4] = test system: IL-6; test: In vivo dose finding: plasma IL-6 after LPS challenge; set-up: species or system mouse; conditions: 50 µg to 50 mg/kg-BW/day in drinking water, 2 weeks; LPS 0.4 mg/kg-BW i.p.; 5 and 50 mg/kg most significant
# Procedure: We then initiated dose response and safety studies in mice to determine testing dosages and safety of DHCA and Mal-gluc. C57BL/6 mice were treated with either DHCA (doses ranging from 50 µg to 50 mg/kg-BW/day) or Mal-gluc (doses ranging from 50 ng to 5 mg/kg-BW/day) for 2 weeks to simulate long-term administration. Mice treated with DHCA were challenged with intraperitoneal (i.p.) injection of 0.4 mg/kg-BW LPS and plasma levels of IL-6 were measured 6 h post injection. […] Following common discovery-stage practices, we measured the plasma levels of alkaline phosphatase (ALP), aspartate aminotransferase (AST), and alanine aminotransferase (ALT) for liver function and blood urea nitrogen (BUN) for renal function.
# Male C57BL/6 J mice (8-week-old) were placed on a polyphenol-free AIN-93M diet and treated with various doses of DHCA (vehicle, 50 µg, 500 µg, 5 mg, and 50 mg/kg-BW/day), delivered through their drinking water for two weeks. Animals were then sacrificed and plasma was collected for routine biochemistry panel analysis including ALP, ALT, and AST for liver function and blood urea nitrogen (BUN) content for kidney function. A separate group of mice was similarly treated and challenged with an i.p. injection of 0.4 mg/kg body weight LPS and plasma was collected 6 h post injection for IL-6 analysis. […]
# [5] = test system: HepG2 cells; test: Cytotoxicity by high content screening (HCS); type: cell-based
# Text: as §1, §2
# [6] = DHCA ↑ (NS, fit not statistically significant), NR = No response observed, read-out: Cytotoxicity by HCS (AC50), Mitochondrial membrane potential
# [7] = DHCA ↑, NR = No response observed, read-out: Cytotoxicity by HCS (AC50), Cytochrome C release
# [8] = Malvidin-gluc ↑, NR = No response observed, read-out: Cytotoxicity by HCS (AC50), Mitochondrial mass
# [9] = Malvidin-gluc ↑, NR = No response observed, read-out: Cytotoxicity by HCS (AC50), Nuclear size
# [10] = Malvidin-gluc ↓, NR = No response observed, read-out: Cytotoxicity by HCS (AC50), Cell number
# [11] = NR = No response observed, read-out: Cytotoxicity by HCS (AC50), DNA structure
# [12] = both ↓, read-out: Cytotoxicity by HCS (AC50), Cell membrane permeability
Structure (SMILES),"AC50 [1, 6]","AC50 [1, 7]","AC50 [1, 8]","AC50 [1, 9]","AC50 [1, 10]","AC50 [1, 11]","AC50 [1, 12]",binding with any of the 37 receptors and transporters tested [2],"luciferase (enhancer) activity, IL-6 intron 1 [3]","luciferase (enhancer) activity, IL-6 intron 3 [3]",plasma IL-6 6 h post LPS injection [4],"AC50 [5, 6]","AC50 [5, 7]","AC50 [5, 8]","AC50 [5, 9]","AC50 [5, 10]","AC50 [5, 11]","AC50 [5, 12]"
"O=C(O)CCc1ccc(O)c(O)c1 [DHCA, 3(3,4-dihydroxy-phenyl) propionic acid]",> 200 µM,> 200 µM,> 200 µM,> 200 µM,> 200 µM,> 200 µM,56.6 µM,no significant binding,partially attenuated,totally abolished,dose-dependent suppression of IL-6,,,,,,,
COc1cc(-c2[o+]c3cc(O)cc(O)c3cc2O[C@@H]2O[C@H](CO)[C@@H](O)[C@H](O)[C@H]2O)cc(OC)c1O [Mal-gluc],,,,,,,,,,,,> 200 µM,> 200 µM,176 µM,88.4 µM,176 µM,> 200 µM,52.7 µM
